# Test system: bovine cardiac myofibrils
# Assay: Myofibril assay: PK/LDH-coupled steady-state ATPase activity of skinned bovine cardiac myofibrils
# Format: biochemical
# Details: Ca2+ activating to 75% of maximal rate
# Method in brief: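 Steady-state ATPase of detergent-skinned bovine left-ventricular myofibrils (1 mg/mL), PK/LDH-coupled NADH read at 340 nm, in PIPES/MgCl2 buffer pH 6.8 with 50 μM ATP, 0.6 mM EGTA and CaCl2 set for 50% or 75% activation. Inhibition of activity measured.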
row,Compound,CDMF75 IC15
1,"COC(=O)N1CC[C@]2(C1)C(=O)N(c1ccc(C#N)cc1F)CC(=O)N2Cc1ccc(C(F)(F)F)cc1 [Compound 216, methyl (S)-9-(4-cyano-2-fluorophenyl)-7,10-dioxo-6-(4-(trifluoromethyl)benzyl)-2,6,9-triazaspiro[4.5]decane-2-carboxylate]",300 nM
2,"CC(C)N1CC(=O)N(Cc2ccc(Cl)cc2)C2(CCN(c3cc(C(N)=O)ccn3)C2)C1=O (stereo not shown) [Compound 97, 2-(6-(4-chlorobenzyl)-9-isopropyl-7,10-dioxo-2,6,9-triazaspiro[4.5]decan-2-yl)isonicotinamide]",3100 nM
3,N#Cc1ccc(N2CC(=O)N(Cc3ccc(C(F)(F)F)cc3)[C@]3(C[C@H](CO)C3)C2=O)c(F)c1 [Compound 475B],600 nM
4,"CC(C)N1CC(=O)N(Cc2ccc(Cl)cc2)C2(CN(c3ccnc(O)c3)C2)C1=O [Compound 28, 5-(4-chlorobenzyl)-2-(2-hydroxypyridin-4-yl)-8-isopropyl-2,5,8-triazaspiro[3.5]nonane-6,9-dione]",3100 nM
5,"CNc1ccccc1N1CC2(C1)C(=O)N(c1ccc(C#N)cc1F)CC(=O)N2Cc1ccc(C(F)(F)F)cc1 [Compound 535, 3-fluoro-4-(2-(2-(methyl-amino)phenyl)-6,9-dioxo-5-(4-(trifluoromethyl)-benzyl)-2,5,8-triazaspiro-[3.5]nonan-8-yl)benzonitrile]",300 nM
6,"CNC(=O)N1CC2(C1)C(=O)N(Cc1ccc(Cl)cc1)CC(=O)N2Cc1ccc(C(F)(F)F)cc1 [Compound 337, 8-(4-chlorobenzyl)-N-methyl-6,9-dioxo-5-(4-(trifluoromethyl)benzyl)-2,5,8-triazaspiro[3.5]-nonane-2-carboxamide]",1630 nM
7,"Cc1cc(CN2C(=O)CN(c3ncc(Cl)cc3F)C(=O)C2C2COC2)ccc1F (stereo not shown) [Compound 667, 1-(5-chloro-3-fluoropyridin-2-yl)-4-(4-fluoro-3-methyl-benzyl)-3-(oxetan-3-yl)-piperazine-2,5-dione]",1100 nM
8,"CCc1ccc(CN2C(=O)CN(c3ncc(Cl)cc3F)C(=O)C2C2COC2)cc1 (stereo not shown) [Compound 665, 1-(5-chloro-3-fluoropyridin-2-yl)-4-(4-ethylbenzyl)-3-(oxetan-3-yl)piperazine-2,5-dione]",7300 nM
9,"CC(C)N1CC(=O)N(Cc2ccc(Cl)cc2)C2(CN(c3ccc(F)cc3)C2)C1=O [Compound 3, 5-(4-chlorobenzyl)-2-(4-fluorophenyl)-8-isopropyl-2,5,8-triazaspiro[3.5]-nonane-6,9-dione]",1700 nM
10,"CC(C)NC(=O)N1CCC2(C1)C(=O)N(C(C)C)CC(=O)N2Cc1ccc(Cl)cc1 (stereo not shown) [Compound 383, 6-(4-chlorobenzyl)-N,9-diisopropyl-7,10-dioxo-2,6,9-triazaspiro[4.5]-decane-2-carboxamide]",>39000 nM
11,"CC(C)N1CC(=O)N(Cc2ccc(Cl)cc2)C2(CCN(c3cnccn3)C2)C1=O (stereo not shown) [Compound 74, 6-(4-chlorobenzyl)-9-isopropyl-2-(pyrazin-2-yl)-2,6,9-triazaspiro[4.5]-decane-7,10-dione]",4200 nM
12,"Cc1ccc(CN2C(=O)CN(C(C)C)C(=O)C2c2ccc(Cl)cc2)cc1 (stereo not shown) [Compound 305, 3-(4-chlorophenyl)-1-isopropyl-4-(4-methylbenzyl)piperazine-2,5-dione]",6000 nM
13,"Cc1cnc(N2CC(=O)N(Cc3ccc(C(F)(F)F)cc3)C(C3COC3)C2=O)c(F)c1 (racemic) [Compound 691, 1-(3-fluoro-5-methylpyridin-2-yl)-3-(oxetan-3-yl)-4-(4-(trifluoromethyl)benzyl)piperazine-2,5-dione]",27600 nM
14,"Cc1cc(Cl)cnc1N1CC(=O)N(Cc2ccc(F)c(F)c2)C(C2COC2)C1=O (stereo not shown) [Compound 720, 1-(5-chloro-3-methyl-pyridin-2-yl)-4-(3,4-difluorobenzyl)-3-(oxetan-3-yl)piperazine-2,5-dione]",9200 nM
15,"CC(C)N1CC(=O)N(Cc2ccc(Cl)cc2)C2(CN(c3ccc(Cl)cc3)C2)C1=O [Compound 4, 5-(4-chlorobenzyl)-2-(4-chlorophenyl)-8-isopropyl-2,5,8-triazaspiro[3.5]-nonane-6,9-dione]",2500 nM
16,"O=C1CN(c2ncc(Cl)cc2F)C(=O)C2(COC2)N1Cc1ccc(C(F)(F)F)cc1 [Compound 551, 8-(5-chloro-3-fluoropyridin-2-yl)-5-(4-(trifluoromethyl)-benzyl)-2-oxa-5,8-diazaspiro[3.5]nonane-6,9-dione]",2480 nM
17,"CCNC(=O)N1CC2(C1)C(=O)N(c1ncc(Cl)cc1F)CC(=O)N2[C@@H](C)c1ccc(Cl)cc1 [Compound 560, (S)-8-(5-chloro-3-fluoro-pyridin-2-yl)-5-(1-(4-chlorophenyl)ethyl)-N-ethyl-6,9-dioxo-2,5,8-triazaspiro[3.5]nonane-2-carboxamide]",8600 nM
18,"O=C1C(C2COC2)N(Cc2ccc(C(F)(F)F)cc2)C(=O)CN1c1ccc(Cl)cc1F (stereo not shown) [Compound 281, 1-(4-chloro-2-fluorophenyl)-3-(oxetan-3-yl)-4-(4-(trifluoromethyl)benzyl)-piperazine-2,5-dione]",4300 nM
19,"O=C1CN(c2ncc(Cl)cc2F)C(=O)C2(CC3(COC3)C2)N1Cc1ccc(C(F)(F)F)cc1 [Compound 813, 10-(5-chloro-3-fluoro-pyridin-2-yl)-7-(4-(trifluoro-methyl)benzyl)-2-oxa-7,10-diazadispiro-[3.1.56.14]dodecane-8,11-dione]",400 nM
20,"COC(=O)N1CC2(C1)C(=O)N(c1ccc(C#N)cc1)CC(=O)N2Cc1ccc(C(F)(F)F)cc1 [Compound 188, methyl 8-(4-cyanophenyl)-6,9-dioxo-5-(4-(trifluoromethyl)benzyl)-2,5,8-triazaspiro[3.5]-nonane-2-carboxylate]",2600 nM
21,"CC(C)N1CC(=O)N(Cc2ccc(C(F)(F)F)cc2)C2(CCN(c3ccccc3)C2=O)C1=O (stereo not shown) [Compound 327, 9-isopropyl-2-phenyl-6-(4-(trifluoromethyl)benzyl)-2,6,9-triazaspiro[4.5]decane-1,7,10-trione]",9800 nM
22,"C[C@@H](c1ccc(C(F)(F)F)cc1)N1C(=O)CN(c2ncc(Cl)cc2F)C(=O)C12CN(C=O)C2 [Compound 620, (S)-8-(5-chloro-3-fluoro-pyridin-2-yl)-6,9-dioxo-5-(1-(4-(trifluoromethyl)-phenyl)ethyl)-2,5,8-triazaspiro[3.5]nonane-2-carbaldehyde]",1800 nM

# Results, then the compound that gave them:
row,CDMF75 IC15,Compound
1,800 nM,"CC(C)N1CC(=O)N([C@@H](C)c2ccc(C(F)(F)F)cc2)C2(CN(c3ccccc3)C2)C1=O [Compound 142, (S)-8-isopropyl-2-phenyl-5-(1-(4-(trifluoromethyl)phenyl)ethyl)-2,5,8-triazaspiro[3.5]nonane-6,9-dione]"
2,600 nM,"N#Cc1ccc(N2CC(=O)N(Cc3ccc(C(F)(F)F)cc3)C3(CN(c4ccc(C#N)cn4)C3)C2=O)cc1 [Compound 192, 6-(8-(4-cyanophenyl)-6,9-dioxo-5-(4-(trifluoromethyl)benzyl)-2,5,8-triazaspiro[3.5]nonan-2-yl)nicotinonitrile]"
3,2800 nM,CC(C)(O)C1CC2(C1)C(=O)N(c1ccc(C#N)cc1F)CC(=O)N2Cc1ccc(C(F)(F)F)cc1 (stereo not shown) [Compound 479B]
4,14300 nM,"CC(C)N1CC(=O)N(Cc2ccc(Cl)cc2)C2(CN(c3cc(Cl)cnn3)C2)C1=O [Compound 60, 5-(4-chlorobenzyl)-2-(5-chloropyridazin-3-yl)-8-isopropyl-2,5,8-triazaspiro[3.5]nonane-6,9-dione]"
5,400 nM,"CC(C)[C@H]1C(=O)N(c2ncc(Cl)cc2F)CC(=O)N1Cc1ccc(C(F)(F)F)cc1 [Compound 554, (S)-1-(5-chloro-3-fluoro-pyridin-2-yl)-3-isopropyl-4-(4-(trifluoromethyl)-benzyl)piperazine-2,5-dione]"
6,2700 nM,"Cc1ccnc(N2CC3(C2)C(=O)N(C(C)C)CC(=O)N3Cc2ccc(Cl)cc2)c1 [Compound 15, 5-(4-chlorobenzyl)-8-isopropyl-2-(4-methyl-pyridin-2-yl)-2,5,8-triazaspiro[3.5]nonane-6,9-dione]"
7,2400 nM,"Cc1ccc(N2CC3(C2)C(=O)N(C(C)C)CC(=O)N3Cc2ccc(Cl)cc2)nc1 [Compound 9, 5-(4-chlorobenzyl)-8-isopropyl-2-(5-methyl-pyridin-2-yl)-2,5,8-triazaspiro[3.5]nonane-6,9-dione]"
8,33000 nM,"CC(C)N1CC(=O)N(Cc2ccc(C(F)(F)F)cc2)C2(CCN(C(=O)NC(C)(C)C)C2)C1=O (stereo not shown) [Compound 112, N-(tert-butyl)-9-isopropyl-7,10-dioxo-6-(4-(trifluoromethyl)benzyl)-2,6,9-triazaspiro[4.5]-decane-2-carboxamide]"
9,19700 nM,"O=C1CN([C@@H]2CCOC2)C(=O)C2(CCN(c3ccccn3)C2)N1Cc1ccc(Cl)cc1 (stereo partly drawn) [Compound 93, 6-(4-chlorobenzyl)-2-(pyridin-2-yl)-9-((R)-tetrahydrofuran-3-yl)-2,6,9-triazaspiro-[4.5]decane-7,10-dione]"
10,200 nM,"CNc1cccc(N2CC3(C2)C(=O)N(c2ccc(C#N)cc2F)CC(=O)N3Cc2ccc(C(F)(F)F)cc2)c1 [Compound 536, 3-fluoro-4-[2-[3-(methylamino)phenyl]-6,9-dioxo-5-[[4-(trifluoromethyl)phenyl]methyl]-2,5,8-triazaspiro[3.5]nonan-8-yl]benzonitrile]"
11,3200 nM,"CNC(=O)N1CCC2(C1)C(=O)N(c1ccc(C#N)cc1)CC(=O)N2Cc1ccc(Cl)cc1 (stereo not shown) [Compound 185, 6-(4-chlorobenzyl)-9-(4-cyanophenyl)-N-methyl-7,10-dioxo-2,6,9-triazaspiro[4.5]decane-2-carboxamide]"
12,1600 nM,"CC(C)N1CC(=O)N(Cc2ccc(C(F)(F)F)cc2)C2(CN(c3cc[nH]c(=O)c3)C2)C1=O [Compound 48, 8-isopropyl-2-(2-oxo-1,2-dihydropyridin-4-yl)-5-(4-(trifluoromethyl)benzyl)-2,5,8-triazaspiro[3.5]-nonane-6,9-dione]"

# Source: patent publication US11414424B2, “Cardiac sarcomere inhibitors” (Cytokinetics, Inc., priority 2018, dated 2022)
